Patent US20060095020A1, “Introduction of agent with medical device” (Medtronic, Inc., priority 2004, published 2006)

System: staphylococcus epidermidis
Settings: in vitro
Description: One skilled in the are would be able to determine the best effective concentration of the active agent, such about 0.05%, about 1%, about 5%, about 10%, about 20%, or the like that should be deployed in a choosen configuration of a given device.
FIG. 10 is a conceptual diagram illustrating an in vitro testing system 160 with an active agent. Testing system 160 includes a culture plate 162, which serves as a test platform. […] A experimental tube 168 made at least in part of diffusible material is deployed in plate 162 proximate to microorganisms 166. The diffusible material is configured to pass the test agent to the indicator by diffusion. Experimental tube 168 may be wholly or partially embedded in growth medium 164, or may rest atop growth medium 164. Experimental tube 168 includes a lumen configured to receive a test active agent.
A pump 170 pumps the active agent from a reservoir 172 into the lumen of tube 168. A valve 174 may be closed to prevent leakage or other discharge of the active agent from tube 168, and an outlet reservoir 176 may be provided to collect fluid that discharges from tube 168. In some embodiments, pump 170, valve 174, or both are electronically controlled such that the quantity of active agent in tube 168 is known, such that the pressure of active agent in tube 168 is known, or such that the flow rate of active agent in tube 168 is known. When the active agent is an antibiotic, the effect of the antibiotic agent on microorganisms 166, if any, can be observed using conventional observational techniques, such as optical or microscopic examination. In this way, the effect of the active agent on microorganisms 166 serves as an indicator of diffusion of the test agent through the diffusible material.

Compound: OO [hydrogen peroxide]
- zone of inhibition of bacterial growth (0.3 percent hydrogen peroxide concentration): about twenty-five
- zone of inhibition of bacterial growth from the site of diffusion (thirty percent concentration hydrogen peroxide solution, diffusing through polyethylene 80 (PE80A) tubing): eighty
- effectiveness against staphylococcus epidermidis (thirty percent concentration hydrogen peroxide solution): substantial effectiveness
